Measurements published in patent publication US20140155334A1, “POLYPHOSPHATE AND PYROPHOSPHATE DERIVATIVE OF SACCHARIDES” (Université de Strasbourg, priority 2010, published 2014).

target: T1, stripped human Hb (Homo sapiens, UniProt P68871+P69905); test: Oxygen equilibrium curves of stripped hemoglobin (Hemox Analyzer), P50 shift; type: biochemical; conditions: compound:Hb molar ratio 20:1, TES-saline buffer pH 7.4
T1 construct: from tissue; host or cells: human blood (red blood cell hemolysate, gel-filtered on Sephadex G-25 to remove BPG)
Source text: Human blood was withdrawn from non-smoking healthy volunteers (CDD) in heparinized microtubes and treated according to the procedure described by Riggs. See A. Riggs, Methods Enzymol. 1981, 76, 5. Red blood cells were washed three times with 0.85% saline and lysed by the addition of 1 volume of purified water per volume of packed red blood cells. Hemolysate was kept cold and passed through a Sephadex G-25 column (1.0×20 cm) equilibrated with 0.1 M NaCl with 10^−5 M EDTA pH 7.5, to remove BPG. The concentration of oxy-Hb was assessed by UV-Vis spectrophotometry (ε=58400 M^−1 cm^−1 at 577 nm per oxy-Hb tetramer).
Solutions of the test compounds (supra, 100 mM) were prepared in purified water and the pH was adjusted to 7.0-7.4 prior to incubations with stripped Hb in a molar ratio of 20:1. The mixtures were diluted in 3 ml of TES-saline buffer (30 mM TES, 140 mM saline, pH 7.4) and oxygen equilibrium curves were measured using a Hemox Analyzer apparatus (TCS Scientific Corp., USA). The P50 values and Hill coefficients were calculated by linear regression analysis from data points obtained between 40 and 60% oxygen saturation.

T1 sequence (P68871 2-147 limits assumed): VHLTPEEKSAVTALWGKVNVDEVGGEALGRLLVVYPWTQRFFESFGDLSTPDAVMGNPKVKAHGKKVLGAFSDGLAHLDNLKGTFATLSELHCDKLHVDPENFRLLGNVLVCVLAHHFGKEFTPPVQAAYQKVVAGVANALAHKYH
T1 sequence (P69905 2-142 limits assumed): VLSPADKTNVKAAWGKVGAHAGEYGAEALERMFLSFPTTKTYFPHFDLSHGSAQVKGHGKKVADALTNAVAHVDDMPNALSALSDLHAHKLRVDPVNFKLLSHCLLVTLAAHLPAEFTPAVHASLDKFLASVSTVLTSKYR

SMILES | relative effectiveness in lowering Hb affinity to oxygen (comparison in words) | shift of the Hb oxygenation curves (P50) [%]
O=P(O)(O)O[C@@H]1O[C@H](CO)[C@@H](OP(=O)(O)O)[C@H](OP(=O)(O)O)[C@@H]1OP(=O)(O)O [Compound 32, β-mannose 1,2,3,4-tetrakisphosphate] | generally more effective than their corresponding glucose | –
CO[C@H]1O[C@H](CO)[C@@H](OP(=O)(O)O)[C@H](OP(=O)(O)O)[C@@H]1OP(=O)(O)O [Compound 10, 1-O-methyl-α-mannose 2,3,4-trisphosphate] | generally more effective than their corresponding glucose | 144
O=P1([O-])OC2C3OP(=O)([O-])OP(=O)([O-])OC3C3OP(=O)([O-])OP(=O)([O-])OC3C2OP(=O)([O-])O1.[Na+].[Na+].[Na+].[Na+].[Na+].[Na+] (centres unmarked) [ITPP, myo-inositol trispyrophosphate hexasodium salt, reference compound] | BPG<ITPP<IHP | –
O=P(O)(O)O[C@@H]1O[C@H](CO)[C@@H](OP(=O)(O)O)[C@H](OP(=O)(O)O)[C@H]1OP(=O)(O)O [Compound 30, β-glucose 1,2,3,4-tetrakisphosphate] | – | 201
O=P(O)(O)O[C@@H]1O[C@H](CO)[C@H](OP(=O)(O)O)[C@H](OP(=O)(O)O)[C@H]1OP(=O)(O)O [Compound 34, β-galactose 1,2,3,4-tetrakisphosphate] | – | 259
O=C([O-])[C@@H](COP(=O)([O-])[O-])OP(=O)([O-])[O-].[Na+].[Na+].[Na+].[Na+].[Na+] [BPG, 2,3-bisphospho-D-glyceric acid pentasodium salt, reference compound] | BPG<ITPP<IHP | –
O=P(O)(O)OC[C@H]1O[C@H](OP(=O)(O)O)[C@@H](OP(=O)(O)O)[C@@H](OP(=O)(O)O)[C@@H]1OP(=O)(O)O [Compound 49, α-mannose pentakisphosphate] | generally more effective than their corresponding glucose | 520
O=P(O)(O)OC[C@H]1O[C@H](OP(=O)(O)O)[C@H](OP(=O)(O)O)[C@@H](OP(=O)(O)O)[C@H]1OP(=O)(O)O [Compound 51, α-galactose pentakisphosphate] | – | 449
O=P(O)(O)O[C@H]1O[C@H](CO)[C@@H](OP(=O)(O)O)[C@H](OP(=O)(O)O)[C@@H]1OP(=O)(O)O [Compound 31, α-mannose 1,2,3,4-tetrakisphosphate] | generally more effective than their corresponding glucose | –
CO[C@H]1O[C@H](CO)[C@@H](OP(=O)(O)O)[C@H](OP(=O)(O)O)[C@H]1OP(=O)(O)O [Compound 8, 1-O-methyl-α-glucose 2,3,4-trisphosphate] | – | 113
CO[C@H]1O[C@H](COP(=O)(O)O)[C@@H](OP(=O)(O)O)[C@H](OP(=O)(O)O)[C@@H]1OP(=O)(O)O [Compound 42, 1-O-methyl-α-mannose tetrakisphosphate] | less effective than the other mannose tetrakisphosphates derivatives | –
O=P(O)(O)O[C@H]1O[C@H](CO)[C@@H](OP(=O)(O)O)[C@H](OP(=O)(O)O)[C@H]1OP(=O)(O)O [Compound 29, α-glucose 1,2,3,4-tetrakisphosphate] | – | 266
O=P(O)(O)O[C@H]1[C@H](OP(=O)(O)O)[C@@H](OP(=O)(O)O)[C@H](OP(=O)(O)O)[C@@H](OP(=O)(O)O)[C@H]1OP(=O)(O)O [IHP, myo-inositol hexakisphosphate, reference compound] | BPG<ITPP<IHP | 466
CO[C@H]1O[C@H](COP(=O)(O)O)[C@@H](OP(=O)(O)O)[C@H](OP(=O)(O)O)[C@H]1OP(=O)(O)O [Compound 41, 1-O-methyl-α-glucose tetrakisphosphate] | – | 264
O=P(O)(O)O[C@H]1O[C@H](CO)[C@H](OP(=O)(O)O)[C@H](OP(=O)(O)O)[C@H]1OP(=O)(O)O [Compound 33, α-galactose 1,2,3,4-tetrakisphosphate] | – | 226
O=P(O)(O)OC[C@H]1O[C@@H](O[C@H]2[C@H](OP(=O)(O)O)[C@@H](OP(=O)(O)O)C(OP(=O)(O)O)O[C@@H]2COP(=O)(O)O)[C@H](OP(=O)(O)O)[C@@H](OP(=O)(O)O)[C@H]1OP(=O)(O)O (some centres unmarked) [Compound 55, lactose octakisphosphate] | – | 550
O=P(O)(O)OC[C@H]1O[C@H](OP(=O)(O)O)[C@H](OP(=O)(O)O)[C@@H](OP(=O)(O)O)[C@@H]1OP(=O)(O)O [Compound 47, α-glucose pentakisphosphate] | – | 466
